Tests used:
[1] = target: T1, Corticotropin-releasing factor receptor 1 (Rattus norvegicus, UniProt P35353); assay: Antagonist activity at rat CFR1R; type: functional
T1 sequence (P35353 whole entry): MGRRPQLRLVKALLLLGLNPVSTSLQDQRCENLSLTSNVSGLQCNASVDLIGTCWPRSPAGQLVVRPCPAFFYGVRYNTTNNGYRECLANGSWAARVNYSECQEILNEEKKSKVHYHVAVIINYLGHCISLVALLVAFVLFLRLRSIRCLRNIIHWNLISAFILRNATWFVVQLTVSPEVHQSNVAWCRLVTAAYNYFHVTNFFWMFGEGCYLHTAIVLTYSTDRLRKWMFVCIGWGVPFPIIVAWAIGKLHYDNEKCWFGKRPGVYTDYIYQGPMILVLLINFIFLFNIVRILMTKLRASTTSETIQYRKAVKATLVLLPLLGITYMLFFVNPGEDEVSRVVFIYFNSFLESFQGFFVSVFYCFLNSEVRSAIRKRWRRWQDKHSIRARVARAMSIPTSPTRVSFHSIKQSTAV

[2] = Fraction unbound in rat plasma; type: ADME, cell-free
[3] = Volume of distribution at steady state in rat at 0.5 mg/kg, iv and 1.5 mg/kg, po; type: ADME, organism-based; details: in vivo, read-out: Vdss
[4] = Clearance in rat at 0.5 mg/kg, iv and 1.5 mg/kg, po; type: ADME, organism-based; details: in vivo
[5] = system: Rattus norvegicus; assay: AUC in rat at 1.5 mg/kg, po; type: ADME, organism-based, Plasma; parameters: dose 1.5 mg/kg, route oral; details: in vivo
[6] = Half life in rat at 0.5 mg/kg, iv; type: ADME, organism-based; parameters: dose 0.5 mg/kg, route intravenous; details: in vivo

| SMILES | IC50 [1] | fraction unbound [2] | other results |
| --- | --- | --- | --- |
| CCC(C1CC1)n1c(=O)c(C)nc2c(-c3cc(Cl)c(OC)cc3OC)ccnc21 (racemic) | 3.4 nM | – | – |
| CCC(C1CC1)n1c(=O)c(C)nc2c(-c3cc(F)c(N(C)C)cc3Cl)ccnc21 (racemic) | 0.82 nM | < 0.002 | – |
| CC[C@@H](C1CC1)n1c(=O)c(C)nc2c(-c3ccc(Cl)cc3Cl)ccnc21 | 7.4 nM | 0.002 | – |
| CC[C@H](C1CC1)n1c(=O)c(C)nc2c(-c3ccc(OC)cc3C)ccnc21 | 11 nM | – | – |
| CCC(COC)n1c(=O)c(C)nc2c(-c3cc(Cl)c(OC)cc3C)ccnc21 (stereo not given) | – | – | Vd [3]: 1.8 L/kg; clearance [4]: 9.5 mL/min/kg; AUC [5]: 8.5 µM·h; half-life [6]: 5.8 h |
| CC[C@H](C1CC1)n1c(=O)c(C)nc2c(-c3ccc(OC)nc3C)ccnc21 | 76 nM | – | – |
| CC[C@H](C1CC1)n1c(=O)c(C)nc2c(-c3ccc(OC)cc3Cl)ccnc21 | 4.5 nM | – | – |
| CC[C@H](COC)n1c(=O)c(C)nc2c(-c3ccc(Cl)cc3Cl)ccnc21 | 4 nM | 0.004 | – |
| CCC(C1CC1)n1c(=O)c(C)nc2c(-c3cc(C#N)c(C)cc3Cl)ccnc21 (stereo not given) | 4.8 nM | – | – |
| CC[C@@H](C1CC1)n1c(=O)c(C)nc2c(-c3ccc(Cl)cc3Cl)ncnc21 | 24 nM | 0.004 | – |
| COCC(C)n1c(=O)c(C)nc2c(-c3ccc(Cl)cc3Cl)ccnc21 (stereo not given) | 63 nM | – | – |
| COCC(C1CC1)n1c(=O)c(C)nc2c(-c3cc(F)c(OC)cc3Cl)ccnc21 (stereo not given) | 1.5 nM | < 0.002 | – |
| CCCC(C)n1c(=O)c(C)nc2c(-c3ccc(Cl)cc3Cl)ccnc21 (stereo not given) | 62 nM | – | – |
| COc1ccc(-c2ccnc3c2nc(C)c(=O)n3C(C2CC2)C2CC2)c(C)c1 | 3 nM | 0.03 | – |
| CCC(C1CC1)n1c(=O)c(C)nc2c(-c3cc(Cl)c(OC(F)F)cc3C)ccnc21 (racemic) | 9.7 nM | 0.003 | – |
| CCC(COC)n1c(=O)c(C)nc2c(-c3cc(F)c(OC)cc3Cl)ccnc21 (stereo not given) | 2.1 nM | 0.03 | – |
| CC[C@H](C1CC1)n1c(=O)c(C)nc2c(-c3cc(F)c(OC)cc3Cl)ccnc21 | 1.7 nM | – | – |
| CC[C@H](C1CC1)n1c(=O)c(C)nc2c(-c3cc(C)c(OC)cc3C)ccnc21 | 130 nM | – | – |
| CC[C@@H](C1CC1)n1c(=O)c(C)nc2c(-c3ccc(OC(F)F)cc3Cl)ccnc21 | 7.3 nM | – | – |

Continued, in another order:

| IC50 [1] | fraction unbound [2] | SMILES | other results |
| --- | --- | --- | --- |
| 8.8 nM | – | CCC(C1CC1)n1c(=O)c(C)nc2c(-c3ccc(C)cc3C)ccnc21 (racemic) | – |
| 8.2 nM | – | CC[C@H](C1CC1)n1c(=O)c(C)nc2c(-c3ccc(Cl)cc3Cl)ccnc21 | – |
| 4.5 nM | – | CC[C@H](C1CC1)n1c(=O)c(C)nc2c(-c3cc(Cl)c(OC)cc3C)ccnc21 | – |
| 4.3 nM | – | CCCC(C1CC1)n1c(=O)c(C)nc2c(-c3ccc(Cl)cc3Cl)ccnc21 (stereo not given) | – |
| 15 nM | – | CCC(C1CC1)n1c(=O)c(C)nc2c(-c3cc(C)c(OC(C)C)cc3Cl)ccnc21 (racemic) | – |
| 2 nM | – | CCOc1cc(Cl)c(-c2ccnc3c2nc(C)c(=O)n3C(CC)C2CC2)cc1C (racemic) | – |
| 4 nM | – | CC[C@@H](C1CC1)n1c(=O)c(C)nc2c(-c3ccc(OC)cc3Cl)ccnc21 | – |
| 380 nM | – | Cc1nc2c(-c3ccc(Cl)cc3Cl)ccnc2n(C(C)C(C)C)c1=O (stereo not given) | – |
| 97 nM | 0.022 | CC[C@H](COC)n1c(=O)c(C)nc2c(-c3ccc(Cl)cc3Cl)ncnc21 | – |
| 52 nM | – | CCC(C1CC1)n1c(=O)c(C)nc2c(-c3cc(F)c(OC)cc3F)ccnc21 (racemic) | – |
| 9.4 nM | – | CC[C@H](C1CC1)n1c(=O)c(C)nc2c(-c3cc(F)c(OC)cc3C)ccnc21 | – |
| 1.1 nM | – | CCC(C1CC1)n1c(=O)c(C)nc2c(-c3cc(C)c(Cl)cc3OC)ccnc21 (racemic) | – |
| 38 nM | 0.004 | CCC(C1CC1)n1c(=O)c(C)nc2c(-c3cc(Cl)c(OC(F)F)cc3C)ncnc21 (stereo not given) | – |
| 7.5 nM | 0.028 | COCC(C1CC1)n1c(=O)c(C)nc2c(-c3cc(F)c(OC)cc3Cl)ncnc21 (stereo not given) | Vd [3]: 2.05 L/kg; clearance [4]: 33.7 mL/min/kg; AUC [5]: 0.3 µM·h; half-life [6]: 2 h |
| 0.68 nM | < 0.002 | CCC(C1CC1)n1c(=O)c(C)nc2c(-c3cc(C)c(OC)cc3Cl)ccnc21 (racemic) | – |
| 3500 nM | – | Cc1nc2c(-c3ccc(Cl)cc3Cl)ccnc2n(CC(C)C)c1=O | – |
| 21 nM | – | CC[C@@H](C1CC1)n1c(=O)c(C)nc2c(-c3ccc(C(F)(F)F)cc3Cl)ccnc21 | – |
| 37 nM | 0.014 | COc1ccc(-c2ncnc3c2nc(C)c(=O)n3C(C2CC2)C2CC2)c(C)c1 | – |
| 340 nM | – | CCC(C1CC1)n1c(=O)c(C)nc2c(-c3cc(C)c(C)c(C)c3C)ccnc21 (racemic) | – |
| 15 nM | – | CC[C@H](C1CC1)n1c(=O)c(C)nc2c(-c3cc(C)c(OC)nc3C)ccnc21 | – |
| 150 nM | – | CC[C@H](COC)n1c(=O)c(C)nc2c(-c3ccc(Cl)cc3Cl)nccc21 | – |
| 74 nM | – | CC[C@@H](COC)n1c(=O)c(C)nc2c(-c3ccc(Cl)cc3Cl)ccnc21 | – |
| 55 nM | – | CC[C@@H](C1CC1)n1c(=O)c(C)nc2c(-c3ccc(Cl)cc3Cl)nccc21 | – |
| 5.2 nM | – | CCC(C1CC1)n1c(=O)c(C)nc2c(-c3cc(C)c(C)cc3C)ccnc21 (racemic) | – |
| 16 nM | 0.014 | CCC(COC)n1c(=O)c(C)nc2c(-c3cc(F)c(OC)cc3Cl)ncnc21 (stereo not given) | – |

Source: ChEMBL document CHEMBL2057151, “Synthesis and structure-activity relationships of pyrido[3,2-b]pyrazin-3(4H)-ones and pteridin-7(8H)-ones as corticotropin-releasing factor-1 receptor antagonists” (Bioorg Med Chem Lett, 2012)
